Laboratory results: patent US20250018030A1, “PHARMACEUTICAL COMPOSITION FOR PROMOTING CANCER IMMUNOTHERAPY AND METHOD FOR PROMOTING CANCER IMMUNOTHERAPY” (China Medical University, priority 2023, published 2025)

Key:
Tc1 cells [1] = experiment: Intracellular cytokine staining / flow cytometry of genipin-treated skewed Tc1 cells; format: cell-based, Mouse; conditions: added to genipin-treated Tc1 cells; FIG. 2R-2S
Description: Mouse lymph nodes and spleens were harvested, and naïve CD4 or CD8 T cells isolated via magnetic bead separation (STEMCELL Technologies) and activated in α-CD3 (10 μg/ml) and α-CD28 (1 μg/ml) pre-coated 96-well plates. Skewing conditions were as follows: Th1 cells/Tc1 cells ([…] 10 μ/ml α-IL-4), Th2 cells/Tc2 cells (20 ng/ml IL-4 and 10 μ/ml α-IFN-γ), Th17 cells/Tc17 cells (20 ng/ml IL-6, 1.25 ng/ml […], 20 ng/ml IL-1β, 20 ng/ml IL-23, 10 μg/ml α-IFN-γ and 10 μg/ml α-IL-4), and Treg cells (5 ng/ml TGF-β, 10 μg/ml α-IFN-γ and 10 μg/ml α-IL-4) in the indicated medium. Cells were cultured for 4-5 days followed by treatment with genipin (3.125 μM, 6.25 μM, 12.5 μM) or DMSO for 12-16 hours.
Monoclonal antibodies were purchased from BD Biosciences or eBioscience. For intracellular cytokine staining (ICS), cells were first restimulated by PMA/ionomycin for 5 hours in the presence of GolgiStop (BD Biosciences), followed by surface epitope staining markers before being fixed/permeabilized (BD Cytofix/Cytoperm™) and stained with antibodies targeting intracellular antigens. Cells were finally fixed with 1.5% formaldehyde for 10 minutes at room temperature and analyzed on a FACSVerse flow cytometer (BD Bioscience). Data were analyzed using FlowJo software (Tree Star Inc.).

Tc1 cells [2] = experiment: Metabolic assays (Seahorse ECAR/OCR, mitochondrial pyruvate and acetyl CoA) in Tc1 cells; format: cell-based, Mouse; conditions: UK5099 40 μM added to genipin-treated Tc1 cells; FIG. 2G-2L
Description: The real-time extracellular acidification rate (ECAR) and oxygen consumption rate (OCR) were measured using a Seahorse XF24 analyzer (Seahorse Bioscience), within XF Glycolysis Stress and XF Cell Mito Stress Test kits used to assess glycolysis and oxidative phosphorylation. 5×10^5 cells exposed to the indicated treatments were plated in an XF-24 microplate coated with Cell-Tak (Corning) one day before the assay. ECAR and OCR were measured after metabolic manipulations by the addition of oligomycin, carbonyl cyanide-p-trifluoromethoxy-phenylhydrazone (FCCP), 2-deoxyglucose (2-DG) and rotenone/anti-mycin A (R/A). Calculations were conducted with Agilent Seahorse Wave Software for Agilent Seahorse XF analyzers (Seahorse Bioscience). For isolation of mitochondria, Tc1 cells were frozen and thawed to weaken the membranes and resuspended in Reagent A of a mitochondria isolation kit (ab110170, Abcam), before being homogenized and centrifuged at 1,000×g for 10 minutes at 4° C. Supernatant was saved (SN #1) and the pellet resuspended in Reagent B. After homogenization and centrifugation, supernatant was saved (SN #2). SN #1 and SN #2 were mixed thoroughly and centrifuged at 12,000×g for 15 minutes at 4° C. The pellet was collected in Reagent C supplemented with protease inhibitors and was used for the pyruvate and acetyl COA assays. Briefly, the mitochondrial pyruvate and acetyl CoA levels in the Tc1 cells were assessed using a commercial Pyruvate Assay Kit (ab65342, Abcam) and PicoProbe Acetyl COA Assay Kit (ab87546, Abcam) according to the manufacturer's instructions.

N#C/C(=C\c1cn(-c2ccccc2)c2ccccc12)C(=O)O [UK5099]
T-bet expression in genipin-treated (UCP2-deprived) Tc1 cells, effect of added inhibitor (Tc1 cells [1]): blocked the positive regulation of T-bet | Genipin-driven Tc1 effects (mitochondrial acetyl CoA, mitochondrial pyruvate, histone H3 acetylation, H3K9 acetylation, OCR, IFN-γ), effect of added inhibitor (Tc1 cells [2]): could be reversed
